Assay: Compound was tested for binding affinity against delta opioid receptor in guinea pig brain membrane using [3H]EK as the radioligand
For `CN1CC[C@]23c4c5ccc(O)c4O[C@@H]2[C@H](NC(=O)CNC(=O)CNC(=O)CCC(=O)NCC(=O)NCC(=O)N[C@@H]2CC[C@]4(O)[C@H]6Cc7ccc(O)c8c7[C@@]4(CCN6C)[C@@H]2O8)CC[C@]3(O)[C@H]1C5` [1N,4N-di[10,17-dihydroxy-4-methyl-(13S,14R,17R)-12-oxa-4-azapentacyclo[9.6.1.01,13.05,17.07,18]octadeca-7(18),8,10-trien-14-ylcarbamoylmethylcarbamoylmethyl]succinamide], the Ki was 27 nM.

Assay: Displacement of [3H]EK from Opioid receptor delta 1 in guinea pig brain membrane
For `O=C(CCC(=O)N[C@@H]1CC[C@@]2(O)[C@H]3Cc4ccc(O)c5c4[C@@]2(CCN3CC2CC2)[C@H]1O5)N[C@@H]1CC[C@@]2(O)[C@H]3Cc4ccc(O)c5c4[C@@]2(CCN3CC2CC2)[C@H]1O5` [1N,4N-di[4-cyclopropylmethyl-10,17-dihydroxy-(13R,14R,17S)-12-oxa-4-azapentacyclo[9.6.1.01,13.05,17.07,18]octadeca-7(18),8,10-trien-14-yl]succinamide], the Ki was 12 nM. In the case of `O=C(CCC(=O)NCC(=O)N[C@@H]1CC[C@@]2(O)[C@H]3Cc4ccc(O)c5c4[C@@]2(CCN3CC2CC2)[C@H]1O5)NCC(=O)N[C@@H]1CC[C@@]2(O)[C@H]3Cc4ccc(O)c5c4[C@@]2(CCN3CC2CC2)[C@H]1O5` [1N,4N-di[4-cyclopropylmethyl-10,17-dihydroxy-(13R,14R,17S)-12-oxa-4-azapentacyclo[9.6.1.01,13.05,17.07,18]octadeca-7(18),8,10-trien-14-ylcarbamoylmethyl]succinamide], the Ki is reported as 7.8 nM. Work on `O=C(CCC(=O)NCC(=O)NCC(=O)N[C@@H]1CC[C@@]2(O)[C@H]3Cc4ccc(O)c5c4[C@@]2(CCN3CC2CC2)[C@H]1O5)NCC(=O)NCC(=O)N[C@@H]1CC[C@@]2(O)[C@H]3Cc4ccc(O)c5c4[C@@]2(CCN3CC2CC2)[C@H]1O5` [1N,4N-di[4-cyclopropylmethyl-10,17-dihydroxy-(13R,14R,17S)-12-oxa-4-azapentacyclo[9.6.1.01,13.05,17.07,18]octadeca-7(18),8,10-trien-14-ylcarbamoylmethylcarbamoylmethyl]succinamide] yielded a Ki of 4.9 nM. With `O=C(CCC(=O)NCC(=O)NCC(=O)NCC(=O)N[C@@H]1CC[C@@]2(O)[C@H]3Cc4ccc(O)c5c4[C@@]2(CCN3CC2CC2)[C@H]1O5)NCC(=O)NCC(=O)NCC(=O)N[C@@H]1CC[C@@]2(O)[C@H]3Cc4ccc(O)c5c4[C@@]2(CCN3CC2CC2)[C@H]1O5` [1N,4N-di[4-cyclopropylmethyl-10,17-dihydroxy-(13R,14R,17S)-12-oxa-4-azapentacyclo[9.6.1.01,13.05,17.07,18]octadeca-7(18),8,10-trien-14-ylcarbamoylmethylcarbamoylmethylcarbamoylmethyl]succinamide] the Ki was 6.4 nM. For `CN1CC[C@]23c4c5ccc(O)c4O[C@@H]2[C@H](NC(=O)CCC(=O)N[C@@H]2CC[C@]4(O)[C@H]6Cc7ccc(O)c8c7[C@@]4(CCN6C)[C@@H]2O8)CC[C@]3(O)[C@H]1C5` [1N,4N-di[10,17-dihydroxy-4-methyl-(13R,14S,17S)-12-oxa-4-azapentacyclo[9.6.1.01,13.05,17.07,18]octadeca-7(18),8,10-trien-14-yl]succinamide], the Ki was 200 nM. For `CN1CC[C@]23c4c5ccc(O)c4O[C@@H]2[C@H](NC(=O)CNC(=O)CCC(=O)NCC(=O)N[C@@H]2CC[C@]4(O)[C@H]6Cc7ccc(O)c8c7[C@@]4(CCN6C)[C@@H]2O8)CC[C@]3(O)[C@H]1C5` [1N,4N-di[10,17-dihydroxy-4-methyl-(13R,14S,17S)-12-oxa-4-azapentacyclo[9.6.1.01,13.05,17.07,18]octadeca-7(18),8,10-trien-14-ylcarbamoylmethyl]succinamide], the Ki was 86 nM. `CN1CC[C@]23c4c5ccc(O)c4O[C@@H]2[C@H](NC(=O)CNC(=O)CNC(=O)CNC(=O)CCC(=O)NCC(=O)NCC(=O)NCC(=O)N[C@@H]2CC[C@]4(O)[C@H]6Cc7ccc(O)c8c7[C@@]4(CCN6C)[C@@H]2O8)CC[C@]3(O)[C@H]1C5` [1N,4N-di[10,17-dihydroxy-4-methyl-(13R,14S,17S)-12-oxa-4-azapentacyclo[9.6.1.01,13.05,17.07,18]octadeca-7(18),8,10-trien-14-ylcarbamoylmethylcarbamoylmethyl]succinamide] showed a Ki of 42 nM. In the case of `CN1CC[C@]23c4c5ccc(O)c4O[C@H]2[C@@H](NC(=O)CNC(=O)CNC(=O)CCC(=O)NCC(=O)NCC(=O)N[C@H]2CC[C@@]4(O)[C@H]6Cc7ccc(O)c8c7[C@@]4(CCN6C)[C@H]2O8)CC[C@@]3(O)[C@H]1C5` [1N,4N-di[10,17-dihydroxy-4-methyl-(13R,14S,17S)-12-oxa-4-azapentacyclo[9.6.1.01,13.05,17.07,18]octadeca-7(18),8,10-trien-14-ylcarbamoylmethylcarbamoylmethylcarbamoylmethyl]succinamide], the Ki is reported as 50 nM.
